How the values were obtained:
scalp stratum corneum = system: scalp stratum corneum
Protocol: (§1) Panellists consisting of males and females were used. Their scalps were assessed to confirm they were suffering from dandruff. The scalps were divided into two, from the centre of the forehead to the nape of the neck. Four sites of similar scalp condition, two on each side of the head, were identified.
(§2) Panellists were assessed for scalp condition then suitable subjects given a placebo shampoo (ie. non anti-dandruff) to use for approximately 5 weeks. They were then asked to return, having not washed their hair or applied products to it for 48 hours. They were re-assessed then tape stripped at one site on each side o: the head ([…]). They then returned to be salon washed, by salon operators, 3 times their week with ½ of each head washed in the placebo and the other ½ in a shampoo containing 1% ZnPTO. After approximately 4 weeks, they were assessed and tape stripped again an adjacent sites to the first two.
Samples were collected by parting the hair and lightly swabbing with an alcohol swab to remove excess sebum. A total of eight sequential tapestrips were taken from each site. These were stored frozen until required for analysis.
The corneocytes were removed from the tapes by sonicating in methanol and the free lipid was extracted from them in a chloroform/methanol mixture, which was then dried under nitrogen. The residue was reconstituted in chloroform arid the lipid species separated on amino-propyl bonded silica gel columns.
The lipids were then separated and quantified using HPTLC. The lipids analysed were total fatty acids, cholesterol, triglycerides and ceramides. The ceramides were separated into the individual ceramides that are normally seen. The covalently bound lipids were not analysed here. The protein content of the samples were measured and the lipid levels expressed as ng lipid per μg protein. The individual ceramides were also expressed as relative % of total ceramides.

dandruff = conditions: 7 subjects; also decreased for placebo
Protocol: as §1, §2

[1] = after vs before, significant only after the ZnPTO treatment

zinc pyrithione [ZnPTO]
Relative % lipids in scalp stratum corneum: Cholesterol (scalp stratum corneum; After ZnPTO, approx 4 weeks, spread 1.4 in row below, Before ZnPTO 11.6 ± 4.5): 8.8%
Relative % lipids in scalp stratum corneum: Ceramides (scalp stratum corneum; After ZnPTO, approx 4 weeks, spread 3.8 in row below, Before ZnPTO 31.0 ± 8.1): 16.4%
Relative % lipids in scalp stratum corneum: Fatty Acids (scalp stratum corneum; After ZnPTO, approx 4 weeks, spread 16.6 in row below, Before ZnPTO 36.0 ± 12.5): 31.8%
Relative % lipids in scalp stratum corneum: Triglycerides (scalp stratum corneum; After ZnPTO, approx 4 weeks, spread 19.2 in row below, Before ZnPTO 21.4 ± 4.8): 43.0%
Mass level of lipid: Fatty Acids (scalp stratum corneum; After ZnPTO: shampoo containing 1% ZnPTO, 3 washes per week, approx 4 weeks, half-head, spread 748.6 in row below, Before ZnPTO 364.9 ± 231.9): 1518.1 ng lipid per μg protein
Mass level of lipid: Cholesterol (scalp stratum corneum; After ZnPTO: shampoo containing 1% ZnPTO, approx 4 weeks, spread 221.8 in row below, Before ZnPTO 108.9 ± 44.3): 478.3 ng lipid per μg protein
Mass level of lipid: Ceramides (scalp stratum corneum; After ZnPTO: shampoo containing 1% ZnPTO, approx 4 weeks, spread 243.9 in row below, Before ZnPTO 284.3 ± 62.4): 841.5 ng lipid per μg protein
Mass level of lipid: Triglycerides (scalp stratum corneum; After ZnPTO: shampoo containing 1% ZnPTO, approx 4 weeks, spread 1911.2 in row below, Before ZnPTO 208.5 ± 77.1): 2539.7 ng lipid per μg protein
Mass level of lipid: Total Lipid (scalp stratum corneum; After ZnPTO: shampoo containing 1% ZnPTO, approx 4 weeks, spread 2056.0 in row below, Before ZnPTO 966.6 ± 282.5): 5377.6 ng lipid per μg protein
Ceramide 6i as % of total ceramides (scalp stratum corneum; After ZnPTO, spread 2.0 in row below, Before ZnPTO 9.2 ± 1.1): 8.0%
Ceramide 6ii as % of total ceramides (scalp stratum corneum; After ZnPTO, spread 2.1 in row below, Before ZnPTO 13.8 ± 2.1): 8.0%
Ceramide 3a as % of total ceramides (scalp stratum corneum; After ZnPTO, spread 2.8 in row below, Before ZnPTO 12.4 ± 1.7): 19.2%
Ceramide 3 as % of total ceramides (scalp stratum corneum; After ZnPTO, spread 4.0 in row below, Before ZnPTO 11.8 ± 3.9): 5.9%
Ceramide 1 as % of total ceramides (scalp stratum corneum; After ZnPTO, spread 5.3 in row below, Before ZnPTO 11.3 ± 4.1): 14.6%
Ceramide 2 as % of total ceramides (scalp stratum corneum; After ZnPTO, spread 5.4 in row below, Before ZnPTO 19.4 ± 4.5): 22.3%
Ceramide 4/5 as % of total ceramides (scalp stratum corneum; After ZnPTO, spread 5.9 in row below, Before ZnPTO 22.2 ± 3.0): 22.1%
Relative composition of the samples after treatment, placebo vs ZnPTO (scalp stratum corneum; after treatment): no significant differences
All the lipids measured, mass levels after ZnPTO treatment compared with before treatment (scalp stratum corneum; after vs before treatment): significantly increased
Change in relative % cholesterol with treatment (scalp stratum corneum; after vs before treatment): do not change
Change in relative % fatty acid with treatment (scalp stratum corneum; after vs before treatment): do not change
Change in relative % ceramide after treatment (scalp stratum corneum; after vs before treatment, also after placebo): significantly decreases
Change in % triglyceride after treatment (scalp stratum corneum; after vs before treatment, significant for ZnPTO): increase in % triglyceride, which is significant for ZnPTO
Change in relative % ceramide 6ii after treatment (scalp stratum corneum; after vs before, after both treatments): statistically significant decrease
Change in relative % ceramide 3a after treatment (scalp stratum corneum; [1]): increase in ceramide 3a
Change in relative % ceramide 3 after treatment (scalp stratum corneum; [1]): decrease in ceramide 3
Level of ceramide, side treated with ZnPTO vs side treated with placebo (scalp stratum corneum; sites sampled after treatment): significantly higher
Level of cholesterol, side treated with ZnPTO vs side treated with placebo (scalp stratum corneum; sites sampled after treatment): significantly higher
Mean dandruff scores after treatment compared with before treatment (dandruff): decreased

— patent publication US20030068289A1, “Skin treatment” (Unilever Home & Personal Care USA, Division of Conopco, Inc., priority 2001, published 2003)
